Measured values published in patent US20160019374A1, “METHODS FOR ESTABLISHING COMBINATIONS OF KINASE INHIBITORS FOR THE TREATMENT OF MEDICAL CONDITIONS” (SALGOMED, INC., priority 2014, published 2016).

Key:
[1] = system: A549 (lung adenocarcinoma); test: Kinase inhibitor screen, selectivity = IMR-90 to A549 viability ratio (ATPlite 1 Step); conditions: single drugs at 1000 nM, 72 hours, 244 KIs screened, FIG. 2
Method: Cell lines IMR-90 (normal lung fibroblast) and A549 (lung adenocarcinoma) were cultured in RPMI 1640 (Hyclone) supplemented with 10% Canadian characterized fetal bovine serum (Hyclone), 1% 200 mM L-glutamine (Omega), and 1% penicillin/streptomycin (Omega). The media for the cells were renewed every 3 days and kept at 80-90% confluency. Cells were maintained in a humidified environment at 37° C. and 5% CO2.
IMR-90 (1500 cells/well) and A549 (750 cells/well) were seeded on 384-well microplates (Grenier Bio-One) and incubated for 3 hours before the addition of kinase inhibitor(s). The reason that IMR-90 was seeded at double the cell density of A549 is due to the difference in cell division. IMR-90's doubling time is 36-48 hours whereas A549's is 22 hours. […] Furthermore, both A549's and IMR-90's final confluency at 72 hrs is 90-95% and within the range of the ATPlite 1 step assay. ECHO 555 Liquid Handler (Labcyte) was used to dispense nanoliter volumes of each KI to 384-well plates with cells attached (wet dispense). The final volume in the plate is 40 uL and cells were incubated for 72 hours with KI treatment.
ATPlite 1 Step (Perkin Elmer) was used to evaluate the cell number and cytotoxicity. ATP measurements were done by dispensing 20 uL of the ATPlite 1 Step solution to each well to a final volume of 60 uL. The plate was placed on a shaker at 1100 rpm and the luminescence activity was detected by Analyst GT Plate Reader. The percent (%) of control is the quantity of ATPlite 1 step measurement of the treated versus the untreated wells of each individual cell type.
The 244 kinase inhibitors (KIs) of the EMD drug library were screened at 1000 nM individually and the treatment lasted for 72 hours.
where vN indicates the viability of normal cells (IMR90) after treatment, and vc the viability of cancer cells (A549) after treatment. […] For the other 243 KIs we used the standard dose of 1000 nM.

primary myoblasts = test: Protection of primary myoblasts against 0.1% hypoxia (viability screen); assay type: cell-based; conditions: single-drug screening of EMD library
From the text: We used our method to predict synergistic effects between four kinase inhibitors: G13, O20, I15, and K10. […] Out of 244 drugs from the EMD library of kinase inhibitors, we first selected 58 drugs that have a positive effect on cell survivability against hypoxia. Single-drug screening results with these drugs were used as a training set to build a regression model that uses the kinase catalytic activity as predictor of the viability. The model assumed a dependence of the viability Vii of the form of Equation (V)

SMILES | selectivity rank in primary screen (IMR-90 to A549 viability ratio) [1] | selectivity rank in primary screen (IMR-90 to A549 viability ratio) ([1]; listed as PDK1/Akt1/Flt3 Dual Pathway Inhibitor) | protection of primary myoblasts against hypoxia (primary myoblasts)
Cc1ccc([N+](=O)[O-])cc1S(=O)(=O)N(C)/N=C/c1cnc2ccc(Br)cn12.Cl [L13, PI 3-Kα In. VIII] | top ten most selective | – | –
O=C1c2ccccc2-[n+]2ccc3c([nH]c4ccccc43)c21 [G10, Fascaplysin, Synthetic] | top ten most selective | – | –
Cc1cc(I)ccc1Nc1c(C(=O)NOCC2CC2)cc(F)c(F)c1F [H15, MEK1/2 In. II] | top ten most selective | – | –
CC(C)c1nn(-c2c(Cl)cccc2Cl)c2nc(Cc3ccc(OCCO)cc3)[nH]c(=O)c12 [E20, Cdk/Crk In.] | top ten most selective | – | –
c1nc2nc(Nc3ccc(N4CCOCC4)cc3)nc(NC3CCCCC3)c2[nH]1 [N05, Reversine] | top ten most selective | – | –
Nc1nc(Nc2ccc(S(N)(=O)=O)cc2)nn1C(=S)Nc1c(F)cccc1F [C16, Cdk1/2 In. III] | top ten most selective | – | –
NS(=O)(=O)c1ccc(N=Nc2c(O)[nH]c3ccc(Br)cc23)cc1 [D07, Cdk2 In. II] | top ten most selective | – | –
O=C1c2ccccc2-c2nc3nnnn3nc21 [A15, PDK1/Akt1/Flt3 Dual Pathway Inhibitor] | top ten most selective | top hit | –
COc1ccc2c(c1)/C(=C/c1cnc[nH]1)C(=O)N2 [O20, SU9516] | top ten most selective | – | protect primary myoblasts against 0.1% hypoxia
Nc1cccc(-c2cc3c(Oc4cccc(O)c4)ncnc3[nH]2)c1 [M16, GSK3b In. XII, TWS119] | top ten most selective | – | –
